Columns and labels:
[1] = system: caspases, PARP, AIF in MM.1S cells; experiment: Western blotting of apoptotic pathway; type: cell-based, human; settings: 10 ug/ml
[2] = system: MCF-7 and MDA-MB-231 breast cancer cell lines; experiment: MTT assay of drug combinations (additive model); type: cell-based
Method: 3-(4,5-dimethylthiazol-2-yl)-2,5-diphenyltetrazolium bromide (MTT) proliferation assays: 3×10^3 cells/well were plated in 96-well plates, cultured in the appropriate culture media containing 10% FCS, and treated with either control vehicle or various concentrations of HNK, alone or with a secondary drug, as indicated. All secondary drugs were freshly diluted in growth media and immediately added to cells along with the HNK. After 24 hours of incubation at 37° C., 5% CO2, the cells were cultured for four hours with 10% MTT reagent (5 mg/ml; Sigma-Aldrich, St. Louis, Mo.). The medium was aspirated, and the cells were dissolved by dimethyl sulfoxide (DMSO). Absorbance of the formazan product was measured by an enzyme-linked immunosorbent assay reader (Macintosh).
Model for drug interactions in vitro: The analysis of interaction between two drugs was conducted using the additive model (Xu D., et al. Cancer Lett. 2006 Jan. 7; [Electronic publication; ahead of print]; Sutherland, R. L., et al. Cancer Res. 1983 September; 43(9):3998-4006). The model predicts the effect of a combination to be equal to the product of the effect of its constituents. […] A ratio between the observed and the predicted viability by the additive model was calculated for all combinations. […]

## C=CCc1ccc(O)c(-c2ccc(O)c(CC=C)c2)c1 [HNK, Honokiol]
[1]; 12 and 24 h
  cleavage of caspases and PARP: Cleavage of caspases 7, 8, 9 and PARP were induced
[1]; 24 h
  release of AIF: induced release of mitochondrial pro-apoptotic protein AIF to cytosol
[2]; HNK 10-50 μM with SAHA 2 μM, 24 hours
  interaction of HNK and SAHA (additive model): synergistic effect
[2]; with paclitaxel 250 nM, doxorubicin 300 nM, 4-HT 100 nM
  interaction of HNK and the other drugs tested (additive model): Additive effect
